Test results: US20070249690A1, “N-[2-(4-Pyridinyl)Ethyl]Benzamide Derivatives as Fungicides” (priority 2004, published 2007)

What was measured:
[1] = system: Botrytis cinerea; test: In vivo test on Botrytis cinerea (cucumber grey mould), cucumber plants; conditions: 330 ppm; for effectiveness on Botrytis cinerea: comparison compounds of WO 01/11965
Procedure: The active ingredient tested is prepared by potter homogenisation in a concentrated suspension type formulation at 100 g/l. This suspension is then diluted with water to obtain the desired active material concentration.
Cucumber plants (Marketer variety) in starter cups, sown on a 50/50 peat soil-pozzolana substrate and grown at 18-20° C., are treated at the cotyledon Z11 stage by spraying with the aqueous suspension described above. Plants, used as controls, are treated with an aqueous solution not containing the active material.
After 24 hours, the plants are contaminated by depositing drops of an aqueous suspension of Botrytis cinerea spores (150,000 spores per ml) on upper surface of the leaves. The spores are collected from a 15-day-old culture and are suspended in a nutrient solution composed of: • 20 g/L of gelatin • 50 g/L of cane sugar • 2 g/L of NH4NO3 • 1 g/L of KH2PO4
The contaminated cucumber plants are settled for 5/7 days in a climatic room at 15-11° C. (day/night) and at 80% relative humidity.
Grading is carried out 5/7 days after the contamination, in comparison with the control plants. Under these conditions, good (at least 50%) or total protection is observed at a dose of 330 ppm with the following compounds: 3.

[2] = system: Alternaria brassicae; test: In vivo test on Alternaria brassicae (leaf spot of crucifers), radish plants; conditions: 330 ppm, comparison compounds of WO 01/11965
Procedure: The active ingredient tested is prepared by potter homogenisation in a concentrated suspension type formulation at 100 g/l. […] Radish plants (Pernot variety) in starter cups, sown on a 50/50 peat soil-pozzolana substrate and grown at 18-20° C., are treated at the cotyledon stage by spraying with the aqueous suspension described above. Plants, used as controls, are treated with an aqueous solution not containing the active material. After 24 hours, the plants are contaminated by spraying them with an aqueous suspension of Alternaria brassicae spores (40,000 spores per cm^3). The spores are collected from a 12 to 13 days-old culture. The contaminated radish plants are incubated for 6-7 days at about 18° C., under a humid atmosphere. Grading is carried out 6 to 7 days after the contamination, in comparison with the control plants. Under these conditions, good (at least 50%) or total protection is observed at a dose of 330 ppm with the following compounds: 1, 2, 3 and 4.

[3] = system: Peronospora parasitica; test: Efficacy against Peronospora parasitica; assay type: in vivo; conditions: 330 ppm, comparison compound of WO 01/11965

Structure (SMILES) | protection (good, at least 50%, or total) ([1]; preventive spray on cucumber plants, grading 5/7 days after contamination, versus control plants) | effectiveness on Alternaria brassicae [2] | efficacy against Peronospora parasitica [3] | effectiveness on Botrytis cinerea [1]
O=C(NCCc1cc(F)ncc1F)c1ccccc1C(F)(F)F [Compound 3] | at least 50% |  |  | 
O=C(Cc1cccs1)NCc1ncc(C(F)(F)F)cc1Cl [compound 101, N-{[3-chloro-5-(trifluoromethyl)-2-pyridinyl]methyl}-5-thienylacetamide] |  | poor efficacy | no efficacy | no efficacy
CCNC(=O)C(Cc1ncc(C(F)(F)F)cc1Cl)NC(=O)c1ccccc1 (stereo not shown) [compound 304, N-{1-ethylcarbamoyl-2-[3-chloro-5-(trifluoromethyl)-2-pyridinyl]-ethyl}-benzamide] |  |  |  | zero effectiveness
CCNC(=O)C(Cc1ncc(C(F)(F)F)cc1Cl)NC(=O)c1ccc(Cl)cc1 (stereo not shown) [compound 306, N-{1-ethylcarbamoyl-2-[3-chloro-5-(trifluoromethyl)-2-pyridinyl]ethyl}-4-chlorobenzamide] |  |  |  | zero effectiveness
CCNC(=O)C(Cc1ncc(C(F)(F)F)cc1Cl)NC(=O)c1cccc([N+](=O)[O-])c1 (stereo not shown) [compound 307, N-{1-ethylcarbamoyl-2-[3-chloro-5-(trifluoromethyl)-2-pyridinyl]ethyl}-3-nitrobenzamide] |  | poor effectiveness |  | zero effectiveness
CCNC(=O)C(Cc1ncc(C(F)(F)F)cc1Cl)NC(=O)c1ccccc1Br (stereo not shown) [compound 310, N-{1-ethylcarbamoyl-2-[3-chloro-5-(trifluoromethyl)-2-pyridinyl]ethyl}-2-bromobenzamide] |  |  |  | zero effectiveness
CNC(=O)C(Cc1ncc(C(F)(F)F)cc1Cl)NC(=O)c1ccccc1 (stereo not shown) [compound 314, N-{1-methylcarbamoyl-2-[3-chloro-5-(trifluoromethyl)-2-pyridinyl]ethyl}-benzamide] |  |  |  | zero effectiveness
CNC(=O)C(Cc1ncc(C(F)(F)F)cc1Cl)NC(=O)c1ccc(OC)cc1 (stereo not shown) [compound 315, N-{1-methylcarbamoyl-2-[3-chloro-5-(trifluoromethyl)-2-pyridinyl]ethyl}-4-methoxybenzamide] |  |  |  | zero effectiveness
CNC(=O)C(Cc1ncc(C(F)(F)F)cc1Cl)NC(=O)c1ccc(-c2ccccc2)cc1 (stereo not shown) [compound 316, N-{1-methylcarbamoyl-2-[3-chloro-5-(trifluoromethyl)-2-pyridinyl]-ethyl}-4-phenylbenzamide] |  | poor effectiveness |  | zero effectiveness
